Data: the supplement of paper PMC10307832

How the values were obtained:
Test in all cases: relative viability (nuclei count vs DMSO), 5 days (fraction); higher = more cells survive
JZL-184 + Trametinib = compound: C1CN(CCC1C(C2=CC3=C(C=C2)OCO3)(C4=CC5=C(C=C4)OCO5)O)C(=O)OC6=CC=C(C=C6)[N+](=O)[O-] [JZL-184] + CC(=O)Nc1cccc(-n2c(=O)n(C3CC3)c(=O)c3c(Nc4ccc(I)cc4F)n(C)c(=O)c(C)c32)c1 [Trametinib] (partner 0.02 µM)
Outline: (§1)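 The day after seeding in 1536-well plates, lung cancer cell lines were treated by pin tool with a single drug, or with a fixed anchor-drug dose together with five library-drug doses (not always all listed) in √10 steps. After 5 days, a combined fix-and-stain solution (final 0.05% Triton X-100, 1% formaldehyde, 1 ug/ml Hoechst) was added. Nuclei counted on 4× images gave relative viability as treated counts over vehicle counts, reported as the median of duplicate plates.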

JZL-184 + Navitoclax = compound: C1CN(CCC1C(C2=CC3=C(C=C2)OCO3)(C4=CC5=C(C=C4)OCO5)O)C(=O)OC6=CC=C(C=C6)[N+](=O)[O-] [JZL-184] + CC1(C)CCC(c2ccc(Cl)cc2)=C(CN2CCN(c3ccc(C(=O)NS(=O)(=O)c4ccc(N[C@H](CCN5CCOCC5)CSc5ccccc5)c(S(=O)(=O)C(F)(F)F)c4)cc3)CC2)C1 [Navitoclax] (partner 0.5 µM)
Outline: as §1

JZL-184 + Foretinib = compound: C1CN(CCC1C(C2=CC3=C(C=C2)OCO3)(C4=CC5=C(C=C4)OCO5)O)C(=O)OC6=CC=C(C=C6)[N+](=O)[O-] [JZL-184] + COc1cc2c(Oc3ccc(NC(=O)C4(C(=O)Nc5ccc(F)cc5)CC4)cc3F)ccnc2cc1OCCCN1CCOCC1 [Foretinib] (partner 0.25 µM)
Outline: as §1

JZL-184 + Lapatinib = compound: C1CN(CCC1C(C2=CC3=C(C=C2)OCO3)(C4=CC5=C(C=C4)OCO5)O)C(=O)OC6=CC=C(C=C6)[N+](=O)[O-] [JZL-184] + CS(=O)(=O)CCNCc1ccc(-c2ccc3ncnc(Nc4ccc(OCc5cccc(F)c5)c(Cl)c4)c3c2)o1 [Lapatinib] (partner 2 µM)
Outline: as §1

JZL-184 + Dasatinib = compound: C1CN(CCC1C(C2=CC3=C(C=C2)OCO3)(C4=CC5=C(C=C4)OCO5)O)C(=O)OC6=CC=C(C=C6)[N+](=O)[O-] [JZL-184] + Cc1nc(Nc2ncc(C(=O)Nc3c(C)cccc3Cl)s2)cc(N2CCN(CCO)CC2)n1 [Dasatinib] (partner 0.075 µM)
Outline: as §1

Cell Line	relative viability (JZL-184 + Trametinib; first compound 0.04 µM)	relative viability (JZL-184 + Trametinib; first compound 0.4 µM)	relative viability (JZL-184 + Trametinib; first compound 1.265 µM)	relative viability (JZL-184 + Trametinib; first compound 4 µM)	relative viability (JZL-184 + Navitoclax; first compound 0.04 µM)	relative viability (JZL-184 + Navitoclax; first compound 0.4 µM)	relative viability (JZL-184 + Navitoclax; first compound 1.265 µM)	relative viability (JZL-184 + Navitoclax; first compound 4 µM)	relative viability (JZL-184 + Foretinib; first compound 0.04 µM)	relative viability (JZL-184 + Foretinib; first compound 0.4 µM)	relative viability (JZL-184 + Foretinib; first compound 1.265 µM)	relative viability (JZL-184 + Foretinib; first compound 4 µM)	relative viability (JZL-184 + Lapatinib; first compound 0.04 µM)	relative viability (JZL-184 + Lapatinib; first compound 0.4 µM)	relative viability (JZL-184 + Lapatinib; first compound 1.265 µM)	relative viability (JZL-184 + Lapatinib; first compound 4 µM)	relative viability (JZL-184 + Dasatinib; first compound 0.04 µM)	relative viability (JZL-184 + Dasatinib; first compound 0.4 µM)	relative viability (JZL-184 + Dasatinib; first compound 1.265 µM)	relative viability (JZL-184 + Dasatinib; first compound 4 µM)
201T	0.676	0.724	0.706	0.688	1.23	1.19	1.17	1.18	1.15	1.09	1.15	1.11	1.09	1.06	0.981	1.02	0.577	0.535	0.61	0.574
A-427	0.757	0.75	0.821	0.684	1.02	0.879	0.962	0.992	1.06	1.03	1.33	0.972	1.17	1.05	1.01	1.09	0.785	0.683	0.71	0.706
ABC-1									1.23	0.986	1.12	1.09	1.09	0.947	1.07	1.19	0.601	0.479	0.533	0.482
BEN	0.967	1.06	1.07	1.04	0.0556	0.0635	0.0659	0.0756	0.666	0.772	0.78	0.846	0.865	0.671	0.939	0.819	0.333	0.349	0.328	0.337
CAL-12T	0.341	0.356	0.352	0.341	1.33	1.1	1.15	1.15	1.22	1.07	1.07	1.2	0.701	0.529	0.789	0.593	0.515	0.254	0.488	0.341
COR-L23	0.774	0.516	0.684	0.54	1.13	0.87	1.05	0.968	0.978	0.881	1.01	0.902	1.26	0.818	0.889	0.823	0.596	0.425	0.514	0.407
COR-L 105	0.454	0.443	0.439	0.414	0.878	0.813	0.905	0.585	0.989	0.975	0.995	1.22	0.349	0.352	0.394	0.327	0.493	0.389	0.35	0.336
ChaGo-K-1	0.925	0.849	0.929	0.788	1.47	0.896	1.29	0.962	0.981	0.872	0.96	0.911					0.657	0.581	0.61	0.595
EKVX	0.322	0.348	0.364	0.359	1	0.946	0.922	0.895	0.677	0.752	0.925	0.755	0.193	0.221	0.194	0.2	0.474	0.536	0.576	0.581
EMC-BAC-2	0.955	0.899	0.832	0.827	1.22	1.12	1.17	1.11	1.09	0.957	1.09	0.947	0.96	0.869	0.971	0.83	0.349	0.32	0.336	0.326
EPLC-272H	0.288	0.32	0.272	0.23	1.12	1.11	1.2	1.25	0.773	0.668	0.907	0.712	1.07	1.02	0.972	0.944	0.403	0.41	0.445	0.325
H3255	0.71	0.581	0.684	0.549	0.589	0.492	0.678	0.522	0.832	0.684	0.95	0.987	0.234	0.267	0.261	0.321	0.353	0.346	0.288	0.38
HARA	0.678		0.652	0.696	1.19	1.06	1.15	1.14	1.16	0.569	0.968	0.924	0.839	0.773	0.807	0.751	0.309	0.16	0.29	0.28
HCC-15	0.384	0.353	0.413	0.431	0.754	0.704	0.759	0.703	1.25	1.01	1.11	1.03	0.988	0.813	0.943	0.778	0.647	0.673	0.677	0.524
HCC-44	1.04	1.07	1.04	1.01	1.02	0.953	0.954	0.876					1.15	0.93	1.08	1.07				
HCC-78	0.705		0.912	0.565	0.709	0.75	0.724	0.551	0.558	0.526	0.515	0.475	0.634	0.787	0.755	0.302	0.276	0.359	0.391	0.301

Cell Line	relative viability (JZL-184 + Trametinib; first compound 0.04 µM)	relative viability (JZL-184 + Trametinib; first compound 0.4 µM)	relative viability (JZL-184 + Trametinib; first compound 1.265 µM)	relative viability (JZL-184 + Trametinib; first compound 4 µM)	relative viability (JZL-184 + Navitoclax; first compound 0.04 µM)	relative viability (JZL-184 + Navitoclax; first compound 0.4 µM)	relative viability (JZL-184 + Navitoclax; first compound 1.265 µM)	relative viability (JZL-184 + Navitoclax; first compound 4 µM)	relative viability (JZL-184 + Foretinib; first compound 0.04 µM)	relative viability (JZL-184 + Foretinib; first compound 0.4 µM)	relative viability (JZL-184 + Foretinib; first compound 1.265 µM)	relative viability (JZL-184 + Foretinib; first compound 4 µM)	relative viability (JZL-184 + Lapatinib; first compound 0.04 µM)	relative viability (JZL-184 + Lapatinib; first compound 0.4 µM)	relative viability (JZL-184 + Lapatinib; first compound 1.265 µM)	relative viability (JZL-184 + Lapatinib; first compound 4 µM)	relative viability (JZL-184 + Dasatinib; first compound 0.04 µM)	relative viability (JZL-184 + Dasatinib; first compound 0.4 µM)	relative viability (JZL-184 + Dasatinib; first compound 1.265 µM)	relative viability (JZL-184 + Dasatinib; first compound 4 µM)
HCC-366	0.384	0.348	0.332	0.276	1.21	1.03	1.07	1.06	0.986	0.889	0.931	0.958	1.19	0.959	1.13	1.05	0.892	0.64	0.61	0.638
HCC-827	0.536	0.55	0.583	0.515	1.04	1.01	1.02	0.981	1.12	0.962	1.01	0.943	0.228	0.196	0.234	0.221	0.328	0.31	0.34	0.305
HOP-62	0.372	0.4	0.375	0.371	1.13	0.739	1.07	1.1	1.16	1.08	1.09	1.03	1.19	1	0.665	0.986	0.561	0.679	0.659	0.631
IA-LM					0.983	0.711	0.78	0.794	1.47	1.08	1.22	1.11	1.09	0.555	0.759	0.629				
LC-2-ad	0.94	0.896	0.93	0.881	0.467	0.248	0.491	0.369	1.13	0.847	0.886	0.955	1.19	0.889	1.05	0.952	0.815	0.496	0.815	0.463
LCLC-103H	0.644	0.664	0.691	0.674					0.833	0.682	0.724	0.529					0.45	0.557	0.489	0.392
NCI-H358	0.146	0.133	0.148	0.15					0.758	0.722	0.72	0.649	0.52	0.418	0.448	0.436	0.167	0.134	0.15	0.155
NCI-H441	0.473	0.436	0.49	0.487	0.802	0.59	0.796	0.608	1.36	0.907	0.897	1.06					0.584	0.546	0.606	0.524
NCI-H650	1.06	0.871	0.963	0.995					1.08	1.12	1.09	1.01	0.916	0.793	1.07	0.894	0.439	0.392	0.472	0.441
NCI-H661	0.606	0.531	0.548	0.586					1.07	1.01	0.992	1.01	0.505	0.481	0.637	0.382	0.95	0.851	0.907	0.867
NCI-H1563									0.937	0.888	0.897	0.959	0.951	0.923	0.972	0.868	0.515	0.374	0.453	0.474
NCI-H1703					1.6	0.852	1.54	1.4	0.356	0.317	0.402	0.295	1.44	0.936	1.4	0.983				
NCI-H1792	0.347	0.406	0.495	0.448	0.889	0.624	0.675	0.612					0.974	0.858	0.926	0.96	0.854	0.771	0.912	0.718
NCI-H2342	0.837	0.785	0.972	0.756					1.04	1.11	1.26	1.12					0.317	0.293	0.282	0.368
SW 900	0.74	0.783	0.864	0.693					1.1	0.858	0.824	0.799					0.543	0.619	0.661	0.509
